Like-named read-outs stand apart in the source and are kept apart here.
What was measured:
[1] = cited from earlier work
[2] = tested on: CYP3A4; details: remaining part by CYP1A2; cited from earlier work
[3] = healthy volunteers, co-administration of ketoconazole; cited from earlier work
[4] = assay type: in vivo, human; details: for Cmin (trough concentration) / Cmax / AUC0-24h: steady state, geometric mean (CV%); for AUC0-24h, ratio of geometric mean (95% CI) / Cmax, ratio of geometric mean (95% CI) / Cmin, ratio of geometric mean (95% CI): erlotinib 75 mg QD + ritonavir 200 mg QD versus erlotinib monotherapy 150 mg QD
[5] = Treatment-related adverse events graded according to CTCAE version 5.0; assay type: in vivo, human; details: nine patients
[6] = plasma, erlotinib 75 mg QD + ritonavir 200 mg QD
[7] = plasma, erlotinib monotherapy 150 mg QD
[8] = erlotinib 75 mg QD + ritonavir 200 mg QD
[9] = erlotinib monotherapy 150 mg QD
[10] = versus erlotinib monotherapy, result in words

## C#Cc1cccc(Nc2ncnc3cc(OCCOC)c(OCCOC)cc23)c1 [Erlotinib, erlotinib]
[1]
  elimination half-life: approximately 36 h
[2]
  Share of erlotinib metabolized by CYP3A4: approximately 70%
[3]
  Increase of AUC0-∞ of erlotinib by ketoconazole: approximately a twofold
  Increase of Cmax of erlotinib by ketoconazole: approximately a twofold
[4]; human, plasma, oral, 150 mg
  AUC(0-t): 29300 ng·h/mL
[4]; [6]
  Cmin (trough concentration): 1.06 (165%) μg/mL
[4]; plasma, erlotinib 75 mg QD + ritonavir 200 mg QD, listed as erlotinib
  Cmin (trough concentration): 1.06 µg/mL
[4]; [7]
  Cmax: 1.84 (60%) μg/mL
  Cmin (trough concentration): 1.00 (62%) μg/mL
[5]; combination of erlotinib with ritonavir
  Patients experiencing treatment-related adverse events: 56%
[5]; [8]
  Diarrhea grade 1 or 2, number of patients: 2
  Diarrhea ≥ grade 3, number of patients: 0
  Nausea grade 1 or 2, number of patients: 2
  Nausea ≥ grade 3, number of patients: 0
  Number of patients experiencing any AE: 5
  Skin rash grade 1 or 2, number of patients: 1
  Skin rash ≥ grade 3, number of patients: 0
[5]; [9]
  Diarrhea grade 1 or 2, number of patients: 2
  Diarrhea ≥ grade 3, number of patients: 0
  Nausea grade 1 or 2, number of patients: 0
  Nausea ≥ grade 3, number of patients: 0
  Number of patients experiencing any AE: 4
  Skin rash grade 1 or 2, number of patients: 3
  Skin rash ≥ grade 3, number of patients: 0
[5]; monotherapy erlotinib
  Patients with a treatment-related adverse event: 44%

## C#Cc1cccc(Nc2ncnc3cc(OCCO)c(OCCOC)cc23)c1 [OSI-413]
[4]
  AUC0-24h, ratio of geometric mean (95% CI): 0.53 (0.34 – 0.83)
  Cmax, ratio of geometric mean (95% CI): 0.48 (0.31 – 0.76)
  Cmin, ratio of geometric mean (95% CI): 0.59 (0.37 – 0.94)
[4]; [6]
  Cmax: 43.7 (134%) ng/mL
  Cmin (trough concentration): 29.4 (263%) ng/mL
[4]; plasma, erlotinib 75 mg QD + ritonavir 200 mg QD, nine patients
  AUC0-24h: 0.823 (174%) μg*h/mL
[4]; [7]
  Cmax: 90.0 (107%) ng/mL
  Cmin (trough concentration): 49.5 (152%) ng/mL
[4]; plasma, erlotinib monotherapy 150 mg QD, nine patients
  AUC0-24h: 1.55 (120%) μg*h/mL
[4]; [10]
  Change in AUC0-24h following the combination of erlotinib and ritonavir: statistically significant decrease
  Change in Cmax following the combination of erlotinib and ritonavir: statistically significant decrease

## CC(C)c1nc(CN(C)C(=O)N[C@H](C(=O)N[C@@H](Cc2ccccc2)C[C@H](O)[C@H](Cc2ccccc2)NC(=O)OCc2cncs2)C(C)C)cs1 [Ritonavir, ritonavir]
[4]; [6]
  Cmin (trough concentration): 0.243 (129%) μg/mL

## OSI-420
[4]
  AUC0-24h, ratio of geometric mean (95% CI): 0.31 (0.15 – 0.62)
  Cmax, ratio of geometric mean (95% CI): 0.28 (0.13 – 0.57)
  Cmin, ratio of geometric mean (95% CI): 0.41 (0.22 – 0.76)
[4]; [6]
  AUC0-24h: 118 (351%) ng*h/mL
  Cmax: 7.24 (230%) ng/mL
  Cmin (trough concentration): 4.34 (443%) ng/mL
[4]; [7]
  AUC0-24h: 380 (144%) ng*h/mL
  Cmax: 26.1 (141%) ng/mL
  Cmin (trough concentration): 10.5 (162%) ng/mL
[4]; [10]
  Change in AUC0-24h following the combination of erlotinib and ritonavir: statistically significant decrease
  Change in Cmax following the combination of erlotinib and ritonavir: statistically significant decrease
  Change in Cmin following the combination of erlotinib and ritonavir: statistically significant decrease

From PMC8964029 (Pharmaceutical Research, 2022)
